Results: patent US20190137505A1 (THE ARIZONA BOARD OF REGENTS ON BEHALF OF THE UNIVERSITY OF …, priority 2015, published 2019)
“Also recorded” adds a separate entry of the source.

Target: T1, plasminogen (Homo sapiens, UniProt P00747)
T1 construct: Glu-Pg, uPA, tPA, fibrinogen, and chromogenic substrate for Pn were purchased from Molecular Innovations (Novi, Mich.); purchased Molecular Innovations (Novi, Mich.)
Test: LC-MS/MS identification of sites of MG adduction on plasminogen in vitro (Tables 1 and 12)
Details: 500 μM MG, 24 hr
Procedure: 10 μg Pg was incubated with MG (50-500 μM) in tris-buffered saline (TBS) for 24 hours at 37° C. Following modification, sample volumes were increased to 150 μL and placed in 5 kDa spin filters to reduce volume and remove excess MG from solution.
MG-modified (500 μM) and unmodified Pg control (same incubation conditions without MG) were added to 250 μL amount of rehydration buffer (6M urea, 2M thiourea, 2% CHAPS, 100 mM DTT, 0.5% 3-10 ampholytes) and 5 μL of 3-10 ampholytes (Bio-Rad). Sample rehydrated with a 13 cm 4-7 pH isoelectric focusing strip (GE Healthcare) overnight. Following rehydration, strips were placed in a Bio-Rad PROTEAN IEF Cell focusing instrument. Strips were first focused for 1 hour at 500 V, and then run at a maximum of 8,000V until the strips have reached a final total of 45,000 V/hrs at which point gels are held at 500V until removed. Focused strips were removed, reduced with DTT, cysteines carbamidomethylated with iodoacetamide, and run on a 4-20% gradient Criterion gel for 55 minutes at 200V. Gels were stained for stained according to manufacturer instructions with Imperial Blue Protein (ThermoScientific, Rockford, Ill.) and destained immediately with water. Gel bands were excised and trypsin digested.
Coomassie stained gel-bands were excised and washed in ddH2O for 15 min. H2O was removed and bands were incubated in 50/50 acetonitrile (ACN):ddH2O for 15 min. ACN:ddH2O was removed and bands were incubated with ACN for 5 min. ACN was removed and gels were incubated with 100 mM ammonium bicarbonate (AMBIC). An equal volume of ACN was added to make 1:1 solution and was incubated for 15 min. The ACN/AMBIC solution was removed and remaining gel bands were dried by speed-vacuum. 10 mM dithiothreitol (DTT) was added to each band and incubated at 56° C. for 45 min. DTT was removed and sample brought to room temperature (RT). Iodoacetamide (55 mM) was added to each sample and incubated at RT for 30 min in dark. Iodoacetamide was removed and 100 mM AMBIC was added and bands were incubated for 5 min. An equal volume of ACN was added to make a 1:1 solution and incubated for 15 min. The ACN/AMBIC solution was removed and bands were dried by speed-vacuum. Bands were digested with trypsin (400 ng/band) in 50 mM AMBIC and incubated on ice for 45 min. Tryptic solution was removed and 50 mM AMBIC was added to each band and incubated overnight at 37° C. to complete digestion. Digests were acidified using 10% trifluoroacetic acid (TFA). Supernatant was saved. Band was covered with TFA:ACN (0.1%:60%) and sonicated at 20° C. water bath for 30 min. Supernatant was combined with previous fraction. Sampled were speed vacuumed to a final volume of 10 μL prior to LC-MS/MS analysis on an LTQ Orbitrap Velos mass spectrometer as described below.
LC-MS/MS analysis of in-gel trypsin digested-proteins (Shevchenko et al., 1996) was carried out using a LTQ Orbitrap Velos mass spectrometer (Thermo Fisher Scientific, San Jose, Calif.) equipped with an Advion nanomate ESI source (Advion, Ithaca, N.Y.), following ZipTip (Millipore, Billerica, Mass.) C18 sample clean-up according to the manufacturer's instructions. Peptides were eluted from a C18 precolumn (100-μm id×2 cm, Thermo Fisher Scientific) onto an analytical column (75-μm ID×10 cm, C18, Thermo Fisher Scientific) using a 5-20% gradient of solvent B (acetonitrile, 0.1% formic acid) over 65 minutes, followed by a 20-35% gradient of solvent B over 25 minutes, all at a flow rate of 400 nl/min. Solvent A consisted of water and 0.1% formic acid. Data dependent scanning was performed by the Xcalibur v 2.1.0 software (Andon et al., 2002) using a survey mass scan at 60,000 resolution in the Orbitrap analyzer scanning m/z 350-1600, followed by collision-induced dissociation (CID) tandem mass spectrometry (MS/MS) of the fourteen most intense ions in the linear ion trap analyzer. […]

T1 sequence (P00747 20-810 limits assumed): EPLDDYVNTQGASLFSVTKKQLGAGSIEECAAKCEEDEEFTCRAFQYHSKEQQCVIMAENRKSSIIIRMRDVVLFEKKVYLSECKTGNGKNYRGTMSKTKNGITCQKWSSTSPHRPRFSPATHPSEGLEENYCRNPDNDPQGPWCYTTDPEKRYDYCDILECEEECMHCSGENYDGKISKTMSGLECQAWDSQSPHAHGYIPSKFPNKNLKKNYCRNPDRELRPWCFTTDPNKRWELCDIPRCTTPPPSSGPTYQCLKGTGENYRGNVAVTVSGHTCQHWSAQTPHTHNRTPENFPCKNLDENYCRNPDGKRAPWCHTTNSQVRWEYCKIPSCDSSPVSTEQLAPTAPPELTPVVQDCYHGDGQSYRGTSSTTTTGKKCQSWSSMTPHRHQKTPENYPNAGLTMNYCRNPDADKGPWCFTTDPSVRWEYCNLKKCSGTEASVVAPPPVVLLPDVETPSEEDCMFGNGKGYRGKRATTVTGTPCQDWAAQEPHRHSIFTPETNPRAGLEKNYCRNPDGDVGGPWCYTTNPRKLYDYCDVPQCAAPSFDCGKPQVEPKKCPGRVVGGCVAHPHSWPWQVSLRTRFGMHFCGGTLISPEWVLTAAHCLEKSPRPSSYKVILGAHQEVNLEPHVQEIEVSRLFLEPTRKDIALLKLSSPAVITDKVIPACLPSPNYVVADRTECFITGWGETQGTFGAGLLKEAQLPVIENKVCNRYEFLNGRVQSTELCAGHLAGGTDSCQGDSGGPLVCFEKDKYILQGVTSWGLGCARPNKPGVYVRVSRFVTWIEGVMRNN

CC(=O)C=O [MG, Methylglyoxal]
Modifications (plasminogen site 43): MG-HI
Modifications (plasminogen site 61): MG-DH; also recorded: MG-HI
Modifications (plasminogen site 68): MG-DH; also recorded: MG-HI
Modifications (plasminogen site 70): MG-DH; also recorded: MG-HI
Modifications (plasminogen site 115): MG-HI
Modifications (plasminogen site 117): MG-HI; also recorded: MG-DH
Modifications (plasminogen site 134): MG-DH
Modifications (plasminogen site 220): MG-DH; also recorded: MG-HI
Modifications (plasminogen site 223): MG-HI
Modifications (plasminogen site 234): MG-DH
Modifications (plasminogen site 242): MG-DH; also recorded: MG-HI
Modifications (plasminogen site 265): MG-DH; also recorded: MG-HI
Modifications (plasminogen site 290): MG-HI
Modifications (plasminogen site 312): MG-DH; also recorded: MG-HI
Modifications (plasminogen site 324): MG-HI; also recorded: MG-DH
Modifications (plasminogen site 389): MG-HI; also recorded: MG-DH
Modifications (plasminogen site 474): MG-HI; also recorded: MG-DH
Modifications (plasminogen site 493): MG-HI; also recorded: MG-DH
Modifications (plasminogen site 504): MG-HI; also recorded: MG-DH
Modifications (plasminogen site 530): MG-HI; also recorded: MG-DH
Modifications (plasminogen site 561): MG-HI; also recorded: MG-DH
Modifications (plasminogen site 582): MG-HI; also recorded: MG-DH
Modifications (plasminogen site 644): MG-HI
Modifications (plasminogen site 712): MG-DH; also recorded: MG-HI
Modifications (plasminogen site 767): MG-HI; also recorded: MG-DH
Modifications (plasminogen site 779): MG-HI; also recorded: MG-DH
Modifications (plasminogen site 789): MG-HI; also recorded: MG-DH
Modifications (plasminogen sites 115/117 on one peptide, two adducts): MG-HI;; also recorded: MG-HI; also recorded: MG-DH;; also recorded: MG-DH
Modifications (plasminogen sites 220/223 on one peptide, two adducts): MG-HI;; also recorded: MG-DH; also recorded: MG-HI; also recorded: MG-DH;
Modifications (plasminogen sites 312/324 on one peptide, two adducts): MG-DH;; also recorded: MG-HI; also recorded: MG-DH; also recorded: MG-HI;
Modifications (plasminogen sites 474/493 on one peptide, two adducts): MG-DH;; also recorded: MG-HI; also recorded: MG-HI;
Modifications (plasminogen sites 489/504 on one peptide, two adducts): MG-HI;; also recorded: MG-DH
Modifications (plasminogen sites 779/789 on one peptide, two adducts): MG-HI;; also recorded: MG-DH; also recorded: MG-HI; also recorded: MG-DH;
Spectra Observed (site 43, MG-HI, C(+57)EEDEEFTC(+57)RAFQYHSK): 1
Spectra Observed (site 61, MG-DH, EQQC(+57)VIMAENRK): 3
Spectra Observed (site 61, MG-HI, EQQC(+57)VIMAENRK): 4
Spectra Observed (site 68, MG-DH, SSIIIRMR): 2
Spectra Observed (site 68, MG-HI, KSSIIIRMR): 1
Spectra Observed (site 70, MG-DH, M(+16)RDVVLFEK): 2
Spectra Observed (site 70, MG-DH, MRDVVLFEK): 7
Spectra Observed (site 70, MG-DH, MRDVVLFEKK): 2
Spectra Observed (site 70, MG-HI, M(+16)RDVVLFEK): 4
Spectra Observed (site 70, MG-HI, MRDVVLFEK): 4
Spectra Observed (site 70, MG-HI, MRDVVLFEKK): 4
Spectra Observed (site 115, MG-HI, WSST SPHRPR): 4
Spectra Observed (site 117, MG-DH, WSSTSPHRPRFSPATHPSEGLEENYC(+57)R): 9
Spectra Observed (site 117, MG-HI, WSSTSPHRPRFSPATHPSEGLEENYC(+57)R): 9
Spectra Observed (site 134, MG-DH, FSPATHPSEGLEENYCRNPDNDPQGPWC(+57)YTTDPEKR): 1
Spectra Observed (site 220, MG-DH, NPDRELRPWC(+57)FTTDPNK): 1
Spectra Observed (site 220, MG-DH, NPDRELRPWC(+57)FTTDPNKR): 6
Spectra Observed (site 220, MG-HI, NPDRELRPWC(+57)FTTDPNK): 5
Spectra Observed (site 223, MG-HI, ELRPWC(+57)FTTDPNKR): 4
Spectra Observed (site 223, MG-HI, NPDRELRPWC(+57)FTTDPNKR): 11
Spectra Observed (site 234, MG-DH, RWELC(+57)DIPR0): 2
Spectra Observed (site 242, MG-DH, WELC(+57)DIPRC(+57)TTPPPSSGPTYQC(+57)LK): 6
Spectra Observed (site 242, MG-HI, WELC(+57)DIPRC(+57)TTPPPSSGPTYQC(+57)LK): 3
Spectra Observed (site 265, MG-DH, GTGENYRGNVAVTVSGHTC(+57)QHWSAQTPHTHNR): 7
Spectra Observed (site 265, MG-HI, GTGENYRGNVAVTVSGHTC(+57)QHWSAQTPHTHNR): 5
Spectra Observed (site 290, MG-HI, GNVAVTVSGHTC(+57)QHWSAQTPHTHNRTPENFPC(+57)K, MH+ 3809.751): 12
Spectra Observed (site 290, MG-HI, GNVAVTVSGHTC(+57)QHWSAQTPHTHNRTPENFPC(+57)K, MH+ 3827.75): 4
